Data taken from patent US10987357B2, “Aerosolized fluoroquinolones and uses thereof” (Horizon Orphan, LLC, priority 2005, dated 2021).
Like-named read-outs stand apart in the source and are kept apart here.

What was measured:
[1] = test system: Streptococcus pneumonia (Sp); details: cited from earlier work; for Sp MIC90: Table 7; for SP MIC90: Table 6
Sa = details: Table 7; cited from earlier work
[2] = test system: methicillin resistant Staphylococcus aureus (MRSA); details: cited from earlier work
[3] = test system: Pseudomonas aeruginosa (Pa); details: cited from earlier work
physchem = details: for Initial Solution pH / Initial Solution Appearance: 10 mg/mL in sterile water; for Initial Solution Appearance: room temperature; for solubility at 10 min: aqueous buffer, thermodynamic from solid; for pH of final solution / After pH Adjustment Appearance / After pH Adjustment pH: 10 mg/mL; for After pH Adjustment Appearance / After pH Adjustment pH: titrated with 1N HCl; for solubility on titration with 1N HCl: pH 1.5
Procedure: A 2 to 20 mg sample of each antibiotic was weighed into sterile plastic tubes and brought up with a volume of sterile water to make a 10 mg/mL solution or suspension of the antibiotic. Samples were incubated for approximately 10 minutes at room temperature with occasional mixing, prior to further handling.
The insoluble solutions were titrated with 1N HCl to the point of visible solubility, and the pH of the solubilized solution determined.
After the pH adjustment, and following a further 10 minute incubation period with occasional mixing, the final appearance of the solutions was determined, just prior to the aerosol tolerability and taste test.

MSSA = details: Table 6; cited from earlier work
[4] = test system: P. aeruginosa strain PAM 1723; assay: Mouse lung infection efficacy model; details: Pseudomonas aeruginosa, PAM1723, in Mus musculus
Procedure: The inoculum is adjusted to ca. 5×10^6 CFU/ml by correlation of absorbance at 600 nm with predetermined plate counts. […] On day 5, mice are infected by an intratracheal instillation of 0.05 ml of inoculum while under isoflurane anesthesia (5% isoflurane in oxygen running at 4 L/min). […] Mice are sacrificed 1 and 4 hours after treatment, their lungs removed, homogenized and plated to determine colony counts.

[5] = in vivo
Procedure: In the second test, the tolerability and taste of a small aerosol sample from a 0.5 ml aliquot of the test formulation was determined in a single healthy human volunteer, following nebulization in a PARI eFlow nebulizer (Table 12).
The tolerability and taste of the drug during a very brief administration period and for a period of 10 minutes post administration were monitored. Tolerability parameters were of the following types: (i) cough, cough sensation, or sneezing (ii) irritation, burning or tightness of throat, (ii) irritation or runniness in nasal passages or eyes, (iii) irritation, burning or tightness of the lungs or shortness of breadth, and (iv) dizziness, headache, nausea or other systemic effects.

[6] = Rat pharmacokinetic model (IV vs microspray aerosol, intratracheal); type: in vivo, rats; details: 10 mg/kg; for AUC / AUC(0-inf) / half-life: rat; for AUC: epithelial lining fluid (ELF); for AUC(0-inf) / half-life: serum; for half-life: read-out: Serum t1/2 (converted)
Procedure: […] Blood samples are taken at various times over 3 hours to determine the plasma pharmacokinetic parameters. […] The plasma and tissue concentrations are determined by an HPLC method and the data are then fit using WinNonlin.

[7] = 1 h, read-out: DeltaLOG CPU 1 hr, route IT, dose 25 mg/kg, 1 hr post-drug administration
[8] = 4 h, read-out: DeltaLOG CPU 4 hr, route IT, dose 25 mg/kg, 4 hr post-drug administration
[9] = ip, 1 h, read-out: DeltaLOG CPU 1 hr, route IP, dose 25 mg/kg, 1 hr post-drug administration
[10] = ip, 4 h, read-out: DeltaLOG CPU 4 hr, route IP, dose 25 mg/kg, 4 hr post-drug administration

SMILES: CNC1CCCN(c2c(F)cc3c(=O)c(C(=O)O)cn(C4CC4)c3c2OC)C1 (stereo not shown) [Balofloxacin]
- Sp MIC90 [1]: 0.5 µg/mL
- Sa MIC90 (Sa): 0.25 µg/mL
- MRSA MIC90 ([2]; Table 7): 8 µg/mL
- Pa MIC90 ([3]; Table 7): 32 µg/mL

SMILES: N[C@@H]1[C@H]2CN(c3nc4c(cc3F)c(=O)c(C(=O)O)cn4-c3ccc(F)cc3F)C[C@@H]12 [Trovafloxacin]
- Initial Solution pH (physchem): 4.2
- Initial Solution Appearance (physchem): colorless, slightly cloudy, no
- solubility at 10 min (physchem): > 10000 µg/mL
- pH of final solution (physchem): 4.2
- SP MIC90 [1]: 0.25 µg/mL
- MSSA MIC90 (MSSA): 0.06 µg/mL
- MRSA MIC90 ([2]; Table 6): 8 µg/mL
- Pa MIC90 ([3]; Table 6): >32 µg/mL

SMILES: Cc1c(N2C[C@@H](N)C3(CC3)C2)c(F)c(N)c2c(=O)c(C(=O)O)cn(C3CC3)c12 [Olamufloxacin]
- Sp MIC90 [1]: 0.06 µg/mL
- Sa MIC90 (Sa): 1 µg/mL
- MRSA MIC90 ([2]; Table 7): 2 µg/mL
- Pa MIC90 ([3]; Table 7): 16 µg/mL

SMILES: CCn1cc(C(=O)O)c(=O)c2cc(F)c(N3CCNCC3)nc21 [Enoxacin]
- Sp MIC90 [1]: 16 µg/mL
- Sa MIC90 (Sa): 1 µg/mL
- MRSA MIC90 ([2]; Table 7): >4 µg/mL
- Pa MIC90 ([3]; Table 7): >32 µg/mL

SMILES: CN1CCN(c2c(F)cc3c(=O)c(C(=O)O)cn4c3c2OCN4C)CC1 [Marbofloxacin]
- Initial Solution pH (physchem): 6.5
- Initial Solution Appearance (physchem): white, very turbid, visible
- After pH Adjustment Appearance (physchem): White, turbid, visible
- After pH Adjustment pH (physchem): 1.5
- pH of final solution (physchem): 1.5
- solubility on titration with 1N HCl (physchem): solubility was not reached by pH 1.5
- SP MIC90 [1]: 2 µg/mL
- MSSA MIC90 (MSSA): 2 µg/mL
- Pa MIC90 ([3]; Table 6): 8 µg/mL

SMILES: CCN1CCN(c2cc3c(cc2F)c(=O)c(C(=O)O)cn3C2CC2)CC1 [Enrofloxacin]
- Sp MIC90 [1]: 1 µg/mL
- Sa MIC90 (Sa): 0.125 µg/mL
- MRSA MIC90 ([2]; Table 7): 8 µg/mL
- Pa MIC90 ([3]; Table 7): >16 µg/mL

SMILES: CCn1cc(C(=O)O)c(=O)c2cc(F)c(N3CCN(C)CC3)cc21 [Pefloxacin]
- SP MIC90 [1]: 32 µg/mL
- MSSA MIC90 (MSSA): 2 µg/mL
- MRSA MIC90 ([2]; Table 6): >32 µg/mL
- Pa MIC90 ([3]; Table 6): >32 µg/mL

SMILES: Cc1oc(=O)oc1CN1CCN(c2cc3c(cc2F)c(=O)c(C(=O)O)c2n3C(C)S2)CC1 (stereo not shown) [Prulifloxacin]
- Sp MIC90 [1]: 1 µg/mL
- Sa MIC90 (Sa): 0.25 µg/mL
- MRSA MIC90 ([2]; Table 7): 32 µg/mL
- Pa MIC90 ([3]; Table 7): 16 µg/mL

SMILES: C[C@@H]1CN(c2c(F)c(N)c3c(=O)c(C(=O)O)cn(C4CC4)c3c2F)C[C@H](C)N1 [Sparfloxacin]
- Initial Solution pH (physchem): 5.0
- Initial Solution Appearance (physchem): bright yellow, turbid, visible
- After pH Adjustment Appearance (physchem): bright yellow, densely
- After pH Adjustment pH (physchem): 1.5
- pH of final solution (physchem): 1.5
- solubility on titration with 1N HCl (physchem): solubility was not reached by pH 1.5
- SP MIC90 [1]: 0.5 µg/mL
- MSSA MIC90 (MSSA): 0.125 µg/mL
- MRSA MIC90 ([2]; Table 6): 16 µg/mL
- Pa MIC90 ([3]; Table 6): 32 µg/mL
- log reduction at 25 mg/kg [4, 7]: 1.56
- log reduction at 25 mg/kg [4, 8]: 0.81
- log reduction at 25 mg/kg [4, 9]: 0.85
- log reduction at 25 mg/kg [4, 10]: -0.09

SMILES: CN1C[C@@H]2C[C@H]1CN2c1cc2c(cc1F)c(=O)c(C(=O)O)cn2C1CC1 [Danofloxacin]
- Sa MIC90 (Sa): 0.125 µg/mL
- Pa MIC90 ([3]; Table 7): >16 µg/mL

SMILES: N[C@@H]1CN(c2c(F)cc3c(=O)c(C(=O)O)cn([C@@H]4C[C@@H]4F)c3c2Cl)CC12CC2 [Sitafloxacin]
- Sp MIC90 [1]: 0.06 µg/mL
- Sa MIC90 (Sa): 0.125 µg/mL
- MRSA MIC90 ([2]; Table 7): 4 µg/mL
- Pa MIC90 ([3]; Table 7): 8 µg/mL

SMILES: C[C@H]1COc2c(C3(N)CC3)c(F)cc3c(=O)c(C(=O)O)cn1c23 [Pazufloxacin]
- Sp MIC90 [1]: 4 µg/mL
- Sa MIC90 (Sa): 0.5 µg/mL
- MRSA MIC90 ([2]; Table 7): >16 µg/mL
- Pa MIC90 ([3]; Table 7): >32 µg/mL

SMILES: COc1c(N2C[C@@H]3CCCN[C@@H]3C2)c(F)cc2c(=O)c(C(=O)O)cn(C3CC3)c12 [Moxifloxacin]
- solubility/pH characteristics (physchem): best solubility/pH characteristics
- solubility at 10 min (physchem): > 10000 µg/mL
- Aerosol Tolerability and Taste [5]: moderate bitter unpleasant taste, some
- cough on aerosol exposure [5]: associated with cough

SMILES: CN1CCN(c2c(F)cc3c(=O)c(C(=O)O)cn(CCF)c3c2F)CC1 [Fleroxacin]
- Sp MIC90 [1]: 8 µg/mL
- Sa MIC90 (Sa): 1 µg/mL
- MRSA MIC90 ([2]; Table 7): >4 µg/mL
- Pa MIC90 ([3]; Table 7): 32 µg/mL

SMILES: Cc1c(F)c(N2CCNC(C)C2)cc2c1c(=O)c(C(=O)O)cn2C1CC1 (stereo not shown) [Grepafloxacin]
- Sp MIC90 [1]: 0.5 µg/mL
- Sa MIC90 (Sa): 0.125 µg/mL
- MRSA MIC90 ([2]; Table 7): 32 µg/mL
- Pa MIC90 ([3]; Table 7): >32 µg/mL

SMILES: CN1CCN(c2c(F)cc3c(=O)c(C(=O)O)cn4c3c2SCC4)CC1 [Rufloxacin]
- Sp MIC90 [1]: 32 µg/mL
- Sa MIC90 (Sa): 2 µg/mL
- MRSA MIC90 ([2]; Table 7): 64 µg/mL
- Pa MIC90 ([3]; Table 7): 32 µg/mL

SMILES: O=C(O)c1cn(-c2ccc(F)cc2)c2cc(N3CCNCC3)c(F)cc2c1=O [Sarafloxacin]
- Sa MIC90 (Sa): 0.25 µg/mL
- MRSA MIC90 ([2]; Table 7): >16 µg/mL
- Pa MIC90 ([3]; Table 7): >16 µg/mL

SMILES: NC[C@H]1O[C@H](O[C@H]2[C@H](O)[C@@H](O[C@H]3O[C@H](CO)[C@@H](O)[C@H](N)[C@H]3O)[C@H](N)C[C@@H]2N)[C@H](N)C[C@@H]1O [Tobramycin]
- F, % from Lung vs. IV ([6]; IT): 81%
- AUC ([6]; inhaled or intranasal, IT): 5150 µg·h/mL
- AUC ([6]; iv): 27.6 µg·h/mL
- AUC(0-inf) ([6]; inhaled or intranasal, IT): 13.8 µg·h/mL
- half-life ([6]; inhaled or intranasal, IT): 60 min
- AUC(0-inf) ([6]; iv): 15.7 µg·h/mL
- half-life ([6]; iv): 30 min
- log reduction at 5 mg/kg ([4]; 1 h, read-out: DeltaLOG CPU 1 hr, route IT, dose 5 mg/kg, 1 hr post-drug administration): 1.59
- log reduction at 5 mg/kg ([4]; 4 h, read-out: DeltaLOG CPU 4 hr, route IT, dose 5 mg/kg, 4 hr post-drug administration): 0.94
- log reduction at 5 mg/kg ([4]; ip, 1 h, read-out: DeltaLOG CPU 1 hr, route IP, dose 5 mg/kg, 1 hr post-drug administration): 0.7
- log reduction at 5 mg/kg ([4]; ip, 4 h, read-out: DeltaLOG CPU 4 hr, route IP, dose 5 mg/kg, 4 hr post-drug administration): -0.29

SMILES: C[C@H]1NCc2cc(-c3ccc4c(=O)c(C(=O)O)cn(C5CC5)c4c3OC(F)F)ccc21 [Garenoxacin]
- Sp MIC90 [1]: 0.06 µg/mL
- Sa MIC90 (Sa): 0.06 µg/mL
- MRSA MIC90 ([2]; Table 7): 8 µg/mL
- Pa MIC90 ([3]; Table 7): >32 µg/mL

SMILES: CN1CCN(c2cc3c(cc2F)c(=O)c(C(=O)O)cn3-c2ccc(F)cc2)CC1 [Difloxacin]
- Sp MIC90 [1]: 2 µg/mL
- Sa MIC90 (Sa): 0.5 µg/mL
- Pa MIC90 ([3]; Table 7): 32 µg/mL

SMILES: CCn1cc(C(=O)O)c(=O)c2cc(F)c(N3CCNCC3)cc21 [Norfloxacin]
- F, % from Lung vs. IV ([6]; IT): 100%
- AUC ([6]; inhaled or intranasal, IT): 41.7 µg·h/mL
- AUC ([6]; iv): 3.27 µg·h/mL
- Sp MIC90 [1]: 16 µg/mL
- Sa MIC90 (Sa): 1 µg/mL
- MRSA MIC90 ([2]; Table 7): >4 µg/mL
- Pa MIC90 ([3]; Table 7): 16 µg/mL

SMILES: NC1CCN(c2c(F)cc3c(=O)c(C(=O)O)cn(C4CC4)c3c2Cl)C1 (stereo not shown) [Clinafloxacin]
- AUC ([6]; inhaled or intranasal, IT): 30.8 µg·h/mL
- AUC(0-inf) ([6]; inhaled or intranasal, IT): 3.2 µg·h/mL
- half-life ([6]; inhaled or intranasal, IT): 44.4 min
- Sp MIC90 [1]: 0.06 µg/mL
- Sa MIC90 (Sa): 0.06 µg/mL
- MRSA MIC90 ([2]; Table 7): 2 µg/mL
- Pa MIC90 ([3]; Table 7): 4 µg/mL
- log reduction at 10 mg/kg ([4]; 1 h, read-out: DeltaLOG CPU 1 hr, route IT, dose 10 mg/kg, 1 hr post-drug administration): 2.71
- log reduction at 25 mg/kg [4, 7]: 2.86
- log reduction at 10 mg/kg ([4]; 4 h, read-out: DeltaLOG CPU 4 hr, route IT, dose 10 mg/kg, 4 hr post-drug administration): 2.4
- log reduction at 25 mg/kg [4, 8]: 2.47
- log reduction at 10 mg/kg ([4]; ip, 1 h, read-out: DeltaLOG CPU 1 hr, route IP, dose 10 mg/kg, 1 hr post-drug administration): 0.96
- log reduction at 25 mg/kg [4, 9]: 1.32
- log reduction at 10 mg/kg ([4]; ip, 4 h, read-out: DeltaLOG CPU 4 hr, route IP, dose 10 mg/kg, 4 hr post-drug administration): 1.39
- log reduction at 25 mg/kg [4, 10]: 1.33
